Test results from patent publication US10959979B2, “Small molecules against cancer” (Biokine Therapeutics Ltd., priority 2015, dated 2021).
In brackets after ≈: the same amount, converted by molar mass.

Columns and labels:
MIP3a = MIP3a (Homo sapiens, UniProt P78556); experiment: Migration of CD4+ T-cells toward MIP3a (Transwell migration assay); type: cell-based; details: 50 μg/ml; BKT300 at 78% purity
Description: (§1) 600 μl of RPMI medium was added to the lower chambers of Transwell® transmigration plates, supplemented with 2 μg/ml of MIP3a, 100 ng/ml of SDF-1 or 10 ng/ml of MCP-1. The tested small molecule was added to the lower chambers at the indicated concentration, except in control samples. The MIP3a, SDF-1 or MCP-1 was incubated with the small molecule for 30 minutes at room temperature before the initiation of the migration assay. Following 30 minutes of incubation 2×10^5 immune cells were added to the upper chambers of the transmigration plates in a total volume of 100 μl. Cells which migrated within 3 hours to the bottom chamber of the Transwell® plates were counted using a FACScalibur™ flow cytometer.
To evaluate migration toward MIP3a, peripheral blood mononuclear cells (PBMCs) were isolated from heparinized venous blood by centrifugation over Ficoll Histopaque® 1077. CD4+ T cells were further isolated with RosetteSep™ human CD4+ T-cell Enrichment cocktail (StemCell Technologies Inc.), according to the manufacturer's instructions. CD4+ T cells were re-suspended in RPMI medium containing 1% fetal calf serum (FCS).

SDF-1 = SDF-1 (Homo sapiens, UniProt P48061); experiment: Migration of Jurkat cells towards SDF-1 (Transwell migration assay); type: cell-based; details: for Inhibition of migration of lymphocytic Jurkat cells towards SDF-1: 10 μg/ml
SDF-1, sequence (P48061 22-93): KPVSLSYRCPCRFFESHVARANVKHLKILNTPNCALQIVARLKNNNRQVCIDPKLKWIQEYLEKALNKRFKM
Description: as §1
To evaluate migration towards SDF-1, Jurkat cells were re-suspended in RPMI medium containing 1% fetal calf serum (FCS).

MCP-1 = MCP-1 (Homo sapiens, UniProt P13500); experiment: Migration of THP-1 cells towards MCP-1 (Transwell migration assay); type: cell-based; details: BKT300 at 78% purity
MCP-1, sequence (P13500 24-99): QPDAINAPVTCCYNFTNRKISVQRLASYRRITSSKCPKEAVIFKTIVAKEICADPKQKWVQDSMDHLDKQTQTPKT
Description: as §1
To evaluate migration towards MCP-1, THP-1 cells were re-suspended in RPMI medium containing 1% fetal calf serum (FCS).

[1] = tested on: MV4-11 human acute myeloid leukemia cells; experiment: Cancer cell viability, FACS with propidium iodide staining; type: cell-based
Description: (§2) In order to assess the effect of compounds of Table 2 on cancer cell viability, the in vitro effect of the compounds on MV4-11 human acute myeloid leukemia cells was evaluated. The cancer cells were incubated in RPMI cell medium with 1% fetal calf serum (FCS) at a concentration of 2×10^5 cells/well at a final volume of 250 μl in 96-well plate. The compounds were added to the cells at the indicated concentrations. The cells were incubated for 24 hours and the number of dead and viable cells was then evaluated by fluorescence-activated cell sorting (FACS), using propidium iodide (PI) staining.

[2] = tested on: Bjab human lymphoma cells; experiment: as above; type: cell-based; details: 8.5 μg/ml; BKT300 at 78% purity
Description: as §2
(§3) The in vitro effect of BKT300 (at 78% purity) on cancer cell viability was further evaluated using a variety of additional cancer cell lines, using procedures as described hereinabove with respect to MV4-11 cells.

[3] = tested on: H345 human small cell lung cancer cells; experiment: as above; type: cell-based; details: 8.5 μg/ml; BKT300 at 78% purity
Description: as §2, §3

[4] = tested on: H460 human large cell lung cancer cells; experiment: as above; type: cell-based; details: 10 μg/ml; BKT300 at 78% purity
Description: as §2, §3

[5] = tested on: Jurkat human acute lymphoblastic leukemia cells; experiment: as above; type: cell-based; details: BKT300 at 78% purity
Description: as §2, §3

[6] = tested on: RPMI human multiple myeloma cells; experiment: as above; type: cell-based; details: BKT300 at 78% purity; concentrations as low as 2 μg/ml (the lowest tested concentration)
Description: as §2, §3

[7] = tested on: Raji human lymphoma cells; experiment: as above; type: cell-based; details: BKT300 at 78% purity
Description: as §2, §3

MV4-11 (FLT3-ITD) cells = experiment: AML cells in vivo: NSG mice transplanted with MV4-11 cells; design: species or system NOD scid gamma (NSG) mice; details: BKT300 at 98% purity; 1 mg/Kg intraperitoneally for three consecutive days from day 21; day 25; anti human CD45
Description: The effect of BKT300 (at 98% purity) on the proliferation of AML cells in vivo was examined by treatment of NOD scid gamma (NSG) mice transplanted with MV4-11 (FLT3-ITD) cells.
The mice were subjected to irradiation with 300 rad and on the following day were transplanted by IV injection with MV4-11 (FLT3-ITD) cells, 10×10^6 cells/mouse. 21 days following transplantation, the treated group was injected intraperitoneally with 1 mg/Kg of BKT300 (98% purity) per injection for three consecutive days. On day 25 following transplantation, mice were sacrificed and the survival of the human AML blasts in the blood, spleen and the bone marrow was evaluated using anti human CD45.

440 kinases = experiment: LanthaScreen europium kinase binding assay, screen of 440 kinases; design: species or system human
Description: (§4) In order to further characterize the effect of BKT300 on cell signaling, kinase profiling of BKT300 (at 78% purity) was performed (by the Life Technologies SelectScreen® Biochemical Profiling Lab) using a LanthaScreen® europium kinase binding assay to screen 440 kinases.
(§5) The principle of the LanthaScreen® assay is depicted in FIG. 48. Binding of an Alexa Fluor® conjugate or “tracer” to a kinase is detected by addition of a europium (Eu)-labeled anti-tag antibody. Binding of the tracer and antibody to a kinase results in a high degree of FRET, whereas displacement of the tracer with a kinase inhibitor results in a loss of FRET. The kinase tracers are based on ATP-competitive kinase inhibitors, making them suitable for detection of any compounds that bind to the ATP site. Inhibitors that bind the ATP site include both Type I kinase inhibitors, which bind solely to the ATP site, and Type II inhibitors (e.g., imatinib, sorafenib, BIRB-796), which bind to both the ATP site and a second site often referred to as the allosteric site.

MLCK (MLCK2) = molecular target: T1, MLCK (MLCK2) (Homo sapiens, UniProt Q32MK0); experiment: LanthaScreen europium kinase binding assay; details: BKT300 at 78% purity
T1 sequence (Q32MK0 1-819): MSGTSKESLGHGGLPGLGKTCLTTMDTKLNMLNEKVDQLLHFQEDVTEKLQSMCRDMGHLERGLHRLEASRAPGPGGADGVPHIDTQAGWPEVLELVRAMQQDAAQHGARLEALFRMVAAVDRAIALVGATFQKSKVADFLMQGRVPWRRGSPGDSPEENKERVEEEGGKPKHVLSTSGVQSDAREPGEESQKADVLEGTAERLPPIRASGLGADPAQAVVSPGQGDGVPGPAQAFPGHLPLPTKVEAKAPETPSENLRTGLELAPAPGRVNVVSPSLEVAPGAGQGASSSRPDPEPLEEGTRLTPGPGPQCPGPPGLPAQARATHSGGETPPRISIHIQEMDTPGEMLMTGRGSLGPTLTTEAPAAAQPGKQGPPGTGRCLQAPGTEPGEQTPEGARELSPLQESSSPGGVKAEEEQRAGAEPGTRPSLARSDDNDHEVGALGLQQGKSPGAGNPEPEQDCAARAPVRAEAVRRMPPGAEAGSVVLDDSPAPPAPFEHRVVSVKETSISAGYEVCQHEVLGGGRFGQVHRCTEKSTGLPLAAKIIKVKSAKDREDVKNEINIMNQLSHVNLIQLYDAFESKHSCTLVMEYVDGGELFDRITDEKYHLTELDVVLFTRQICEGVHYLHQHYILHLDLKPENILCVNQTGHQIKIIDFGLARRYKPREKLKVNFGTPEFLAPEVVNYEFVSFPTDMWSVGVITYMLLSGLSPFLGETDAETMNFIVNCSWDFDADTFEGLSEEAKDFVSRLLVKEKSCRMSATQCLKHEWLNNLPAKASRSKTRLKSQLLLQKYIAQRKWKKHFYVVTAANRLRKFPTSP
Description: as §4, §5

MIP3a, sequence (P78556 27-96): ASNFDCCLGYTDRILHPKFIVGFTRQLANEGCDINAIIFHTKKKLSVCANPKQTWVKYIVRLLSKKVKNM

Inhibition of CD4+ T-cell migration towards MIP3a (MIP3a): completely inhibited
Inhibition of migration of lymphocytic Jurkat cells towards SDF-1 (SDF-1; BKT300 at 78% purity): significantly inhibited
Inhibition of migration of lymphocytic Jurkat cells towards SDF-1 (SDF-1; BKT300 at 98% purity): significantly inhibited
Selectivity of inhibition of SDF-1 function over MCP-1 and/or MIP3a function (SDF-1; at a concentration of about 10 μg/ml): relatively selective manner
Inhibition of migration of monocytic THP-1 cells towards MCP-1 (MCP-1; 10 μg/ml): no apparent effect
Inhibition of migration of monocytic THP-1 cells towards MCP-1 (MCP-1; 50 μg/ml): strong inhibition
Inhibition of 36 of the 440 screened kinases (440 kinases; BKT300 at 78% purity): more than 40%
Affinity of BKT300 to kinases, based on the kinase screening assay (440 kinases; estimated from Table 3): few tens
% Inhibition (MLCK (MLCK2)): 58%
SMILES: CCCCCc1cc2cc(O)cc(Oc3c(O)cc(O)cc3CCCCC)c2c(=O)o1 [BKT300]
Degree of cell death of MV4-11 cells, 98% purity compared with 78% purity ([1]; 4.25 μg/ml, BKT300 at 98% purity vs 78% purity): considerably greater degree of cell death
Cell death of MV4-11 cells ([1]; BKT300 at 78% purity, concentrations as low as 2 μg/ml (the lowest tested concentration), 24 hours): induced cell death
Induction of cell death of MV4-11 cells, 98% purity compared with 78% purity ([1]; BKT300 at 98% purity vs BKT300 at 78% purity): significantly more effective
IC50 ([1]; Homo sapiens, MV4-11, BKT300 at 78% purity, 24 hours, read-out: IC50 for induced death of MV4-11 cells): 2.72 µg/mL (≈ 6.38 µM)
Cell death of Bjab cells [2]: about 30%
Cell death of H345 cells [3]: over 90%
Cell death of H460 cells [4]: about 80%
Cell death of Jurkat cells ([5]; concentrations as low as 2 μg/ml (the lowest tested concentration)): induced cell death
IC50 ([5]; Homo sapiens, Jurkat, read-out: IC50 for BKT300-induced death of Jurkat cells): 3.5 µg/mL (≈ 8.21 µM)
Cell death of RPMI cells [6]: induced cell death
Cell death of Raji cells ([7]; 4.25 μg/ml): slight cell death
Cell death of Raji cells ([7]; 8.5 μg/ml): about 30%
Number and percentage of AML cells in the bone marrow of mice (MV4-11 (FLT3-ITD) cells): dramatically reduced
